Peptide text beside a SMILES is read from it.
How the values were obtained:
Type in all cases: biochemical
[1] = biological target: T1, human recombinant caspase-2 (Homo sapiens, UniProt P42575); assay: In vitro caspase-2 cleavage assay (Ac-VDVAD-AMC substrate); set-up: key to Group (pattern of caspase-2 inhibition curve): group 1 referred to inhibitors that were relatively more active than VDVAD(SEQ ID NO:9)-based inhibitors against caspase-2 at lower doses, but with similar IC50 values; group 2 referred to VDVAD(SEQ ID NO:9)-based inhibitor with characteristic sigmoid dose-response; group 3 referred to pentapetidic-based inhibitors that were less active than VDVAD(SEQ ID NO:9)-based inhibitors against caspase-2 at lower doses and that exhibited higher IC50; details: for Group (pattern of caspase-2 inhibition curve) / IC50: Table 4; for IC50: 30 min pre-incubation, 2 h at 37° C.
T1 construct: purchased BIOMOL
T1 sequence (P42575 170-333 limits assumed): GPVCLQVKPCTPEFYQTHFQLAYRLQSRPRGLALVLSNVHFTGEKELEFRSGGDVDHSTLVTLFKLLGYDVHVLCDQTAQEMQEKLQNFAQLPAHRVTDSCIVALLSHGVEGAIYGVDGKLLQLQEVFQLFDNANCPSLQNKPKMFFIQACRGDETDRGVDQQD
T1 sequence (P42575 348-452 limits assumed): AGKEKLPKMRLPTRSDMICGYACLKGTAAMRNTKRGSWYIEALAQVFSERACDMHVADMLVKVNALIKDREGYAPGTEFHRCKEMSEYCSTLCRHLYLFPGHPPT
Protocol: Newly designed inhibitors (Ac-LDEAD(SEQ ID NO:7)-CHO, Ac-VDEAD(SEQ ID NO:1)-CHO . . . ) were compared to Ac-VDVAD(SEQ ID NO:9)-CHO in in vitro caspase-2 cleavage assay according to the following protocol (FIG. 8). Human recombinant caspases (25-50 U; QuantiZyme™ Assay System, BIOMOL, Plymouth, Pa., USA) were pre-incubated 30 min with inhibitors (0.005-2 μM) in final 100 μl final assay buffer (50 mM HEPES, pH 7.4, 100 mM NaCl, 0.1% CHAPS, 10 mM DTT, 1 mM EDTA, 10% glycerol) and then mixed with 200 μM of the fluorogenic caspase substrates (BIOMOL) Ac-VDVAD(SEQ ID NO:9)-AMC. An IC50 value corresponding to the concentration that could inhibit 50% of caspase activity was determined from the dose-response sigmoid curve. The cleavage of AMC-based substrates by human recombinant caspases 1-10 was measured after 2 h at 37° C. on a fluorescence microplate reader by monitoring emission at 510 nm upon excitation at 405 nm.

[2] = biological target: T2, rat recombinant calpain II (Rattus norvegicus, UniProt Q07009); assay: Calpain II inhibition assay; details: 2 μM
T2 construct: purchased Biomol
T2 sequence (Q07009 1-700): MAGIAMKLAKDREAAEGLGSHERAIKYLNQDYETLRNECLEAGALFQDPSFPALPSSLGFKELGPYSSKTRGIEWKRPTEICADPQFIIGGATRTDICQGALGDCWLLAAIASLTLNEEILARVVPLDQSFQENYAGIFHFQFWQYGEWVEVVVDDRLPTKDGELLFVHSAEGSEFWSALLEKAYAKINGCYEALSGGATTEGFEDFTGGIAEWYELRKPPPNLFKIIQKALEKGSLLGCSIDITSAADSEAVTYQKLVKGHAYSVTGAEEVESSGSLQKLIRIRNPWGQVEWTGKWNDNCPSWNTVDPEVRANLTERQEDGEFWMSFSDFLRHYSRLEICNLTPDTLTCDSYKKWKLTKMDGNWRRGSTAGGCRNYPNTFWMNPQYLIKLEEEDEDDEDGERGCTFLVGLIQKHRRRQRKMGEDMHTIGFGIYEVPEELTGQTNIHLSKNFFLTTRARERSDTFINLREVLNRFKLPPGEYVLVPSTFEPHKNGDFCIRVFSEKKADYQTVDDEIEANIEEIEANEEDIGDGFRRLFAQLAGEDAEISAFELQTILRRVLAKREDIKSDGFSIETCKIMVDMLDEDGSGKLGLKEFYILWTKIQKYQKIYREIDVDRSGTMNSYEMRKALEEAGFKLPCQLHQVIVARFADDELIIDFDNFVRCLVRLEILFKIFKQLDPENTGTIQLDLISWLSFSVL
T2 sequence (Q64537 87-270 partner limits assumed): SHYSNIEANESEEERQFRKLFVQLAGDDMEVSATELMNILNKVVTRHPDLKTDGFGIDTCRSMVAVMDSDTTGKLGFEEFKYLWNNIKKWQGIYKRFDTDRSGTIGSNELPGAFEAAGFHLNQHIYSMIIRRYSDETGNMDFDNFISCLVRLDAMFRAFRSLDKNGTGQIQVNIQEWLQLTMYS
Protocol: (§1) Additionally, specificity of newly designed inhibitors was checked against calpains and Granzyme B. Human recombinant calpain I (0.8 U) and rat recombinant calpain II (20 U) (both from Biomol) were pre-incubated 30 min with inhibitors in final 100 μl final assay buffer (50 mM HEPES, pH 7.4, 100 mM NaCl, 0.1% CHAPS, 5 mM CaCl2, 1 mM EDTA, 10% glycerol, 2 mM β-mercaptoethanol) and then mixed with 20 μM of the fluorogenic calpain substrates I or II (Calbiochem), respectively. ALLN and ALLM (1 μM) were internal controls for inhibition. The cleavage of substrates by recombinant enzymes was measured after 2 h at 37° C. on a fluorescence microplate reader by monitoring emission at 460 nm upon excitation at 380 nm for calpain I or emmission at 530 nm upon excitation at 485 nm for calpain II. Human granzyme B (50 U; Biomol) was pre-incubated 10 min with inhibitors in final 100 μl final granzyme assay buffer (Biomol) and then mixed with 400 μM of Ac-IEPD-pNA (Biomol). 3,4 DCIC (1 μM) was used as positive control for inhibition. The cleavage of substrate was measured after 1 h at 37° C. on a spectrophotometer at […]. Ac-IEPD-pNA is DEQ ID NO:29.

Human granzyme B = biological target: T3, Human granzyme B (Homo sapiens, UniProt P10144); assay: Granzyme B inhibition assay (Ac-IEPD-pNA); details: 2 μM
T3 construct: purchased Biomol
Protocol: as §1

[3] = biological target: T4, Human recombinant calpain I (Homo sapiens, UniProt P07384); assay: Calpain I inhibition assay; details: 2 μM
T4 construct: purchased Biomol
T4 sequence (P07384 1-714): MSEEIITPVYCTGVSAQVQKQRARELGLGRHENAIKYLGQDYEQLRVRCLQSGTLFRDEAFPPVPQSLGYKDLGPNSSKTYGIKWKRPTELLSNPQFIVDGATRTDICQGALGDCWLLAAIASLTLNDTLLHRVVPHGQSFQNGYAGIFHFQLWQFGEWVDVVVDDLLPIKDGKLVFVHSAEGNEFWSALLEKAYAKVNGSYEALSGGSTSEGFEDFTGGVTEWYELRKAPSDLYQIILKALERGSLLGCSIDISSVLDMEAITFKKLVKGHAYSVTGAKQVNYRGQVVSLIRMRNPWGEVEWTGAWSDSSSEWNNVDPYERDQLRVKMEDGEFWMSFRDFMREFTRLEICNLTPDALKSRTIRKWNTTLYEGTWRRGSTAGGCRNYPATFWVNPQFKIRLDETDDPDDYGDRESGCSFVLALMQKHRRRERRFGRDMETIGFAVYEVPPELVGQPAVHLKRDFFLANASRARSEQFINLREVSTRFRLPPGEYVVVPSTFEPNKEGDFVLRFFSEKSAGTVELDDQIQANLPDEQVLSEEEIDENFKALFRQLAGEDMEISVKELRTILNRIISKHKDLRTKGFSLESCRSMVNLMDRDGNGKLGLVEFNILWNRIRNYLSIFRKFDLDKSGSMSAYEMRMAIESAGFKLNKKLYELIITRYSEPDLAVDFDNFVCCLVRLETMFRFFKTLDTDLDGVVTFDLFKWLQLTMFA
T4 sequence (P04632 1-268 partner): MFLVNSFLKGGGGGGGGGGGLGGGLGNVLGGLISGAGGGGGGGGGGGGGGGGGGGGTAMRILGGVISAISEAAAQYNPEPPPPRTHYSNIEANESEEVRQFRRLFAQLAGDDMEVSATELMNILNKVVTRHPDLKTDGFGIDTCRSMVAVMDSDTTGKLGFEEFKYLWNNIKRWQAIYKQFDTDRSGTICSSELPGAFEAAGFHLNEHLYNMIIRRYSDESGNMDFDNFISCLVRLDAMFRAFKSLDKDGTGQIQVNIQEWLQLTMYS
Protocol: as §1

other caspases = assay: In vitro cleavage assay on panel of human recombinant caspases (cross-reaction); details: at high doses
Protocol: Newly designed inhibitors (Ac-LDEAD(SEQ ID NO:7)-CHO, Ac-VDEAD(SEQ ID NO:1)-CHO) . . . ) were tested against a large panel of caspase (1 to 10) during in vitro cleavage assay according to the following protocol. Human recombinant caspases (25-50 U; Biomol) were pre-incubated 30 min with inhibitors (0.005-2 μM) in final 100 μl final assay buffer (50 mM HEPES, pH 7.4, 100 mM NaCl, 0.1% CHAPS, 10 mM DTT, 1 mM EDTA, 10% glycerol) and then mixed with 200 μM of their specific fluorogenic caspase substrates (BIOMOL) (Ac-YVAD(SEQ ID NO:23)-AMC (caspase-1), Ac-VDVAD(SEQ ID NO:9)-AMC (caspase-2), Ac-DEVD(SEQ ID NO:24)-AMC (caspase-3/-7), Ac-VEID(SEQ ID NO:25)-AMC (caspase-6), Ac-IETD(SEQ ID NO:26)-AMC (caspase-81-10)1Ac-LEHD(SEQ ID NO:27)-AMC (caspase-9). The cleavage of AMC-based substrates by human recombinant caspases 1-10 was measured after 2 h at 37° C. on a fluorescence microplate reader by monitoring emission at 510 nm upon excitation at 405 nm.

T3 sequence (P10144 21-247): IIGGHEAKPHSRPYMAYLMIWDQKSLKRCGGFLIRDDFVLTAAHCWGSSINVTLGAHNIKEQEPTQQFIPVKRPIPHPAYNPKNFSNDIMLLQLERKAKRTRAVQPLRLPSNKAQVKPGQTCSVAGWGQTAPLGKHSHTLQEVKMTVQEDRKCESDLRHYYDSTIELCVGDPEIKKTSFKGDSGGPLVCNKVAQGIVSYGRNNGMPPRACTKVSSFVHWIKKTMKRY

| Structure (SMILES) | Group (pattern of caspase-2 inhibition curve) [1] | IC50 [1] | inhibition of calpain II [2] | inhibition of granzyme B (Human granzyme B) | inhibition of calpain I [3] | VDVAD-AMC cleavage by caspase-2 ([1]; recombinant caspase-2, FIG. 16) | inhibition of other caspases (cross-reaction) (other caspases) |
| --- | --- | --- | --- | --- | --- | --- | --- |
| CC(=O)N[C@H](C(=O)N[C@@H](CC(=O)O)C(=O)N[C@@H](CCC(=O)O)C(=O)N[C@@H](C)C(=O)N[C@H](C=O)CC(=O)O)C(C)C [Compound 20, Ac-VDEAD(SEQ ID NO:1)-cho] (Ac-VDEAD-aldehyde) | 1 | 85 ± 5 nM | not strong inhibitors | not strong inhibitors | not strong inhibitors |  |  |
| CC(=O)N[C@@H](CC(C)C)C(=O)N[C@@H](CC(=O)O)C(=O)N[C@@H](CCC(=O)O)C(=O)N[C@@H](C)C(=O)N[C@H](C=O)CC(=O)O [Compound 14, Ac-LDEAD(SEQ ID NO:7)-cho] (Ac-LDEAD-aldehyde) | 1 | 85 ± 6 nM | not strong inhibitors | not strong inhibitors | not strong inhibitors |  |  |
| CC(=O)N[C@H](C(=O)N[C@@H](CC(=O)O)C(=O)N[C@H](C(=O)N[C@@H](C)C(=O)N[C@H](C=O)CC(=O)O)C(C)C)C(C)C [Compound 8, Ac-VDVAD-cho, reference compound] (Ac-VDVAD-aldehyde) | 2 |  |  |  |  | blocked | less than 20% |

Reference: patent US8324173B2, “Peptides useful as dual caspase-2/-6 inhibitors and their biological applications” (Chiesi Farmaceutici S.p.A., priority 2004, dated 2012)
